These results are taken from US5589506A, “Stilbene derivative and stilbene analog derivative, and use thereof” (Morinaga Milk Industry Co., Ltd., priority 1993, dated 1996).

In general, IC50 refers to the concentration at which inhibition is half-maximal.

In series [1] the test system is 12-lipoxygenase. The note with it: background; cited from earlier work.
Series [2] deals with T1, 12-lipoxygenase (Rattus norvegicus, UniProt F1LQ70).
T1 construct: The pelleted platelets were rinsed twice with a washing buffer; from tissue; host or cells: platelets of Sprague Dawley male rat (sonicate, 100,000 x g supernatant)
T1 sequence (F1LQ70 1-663): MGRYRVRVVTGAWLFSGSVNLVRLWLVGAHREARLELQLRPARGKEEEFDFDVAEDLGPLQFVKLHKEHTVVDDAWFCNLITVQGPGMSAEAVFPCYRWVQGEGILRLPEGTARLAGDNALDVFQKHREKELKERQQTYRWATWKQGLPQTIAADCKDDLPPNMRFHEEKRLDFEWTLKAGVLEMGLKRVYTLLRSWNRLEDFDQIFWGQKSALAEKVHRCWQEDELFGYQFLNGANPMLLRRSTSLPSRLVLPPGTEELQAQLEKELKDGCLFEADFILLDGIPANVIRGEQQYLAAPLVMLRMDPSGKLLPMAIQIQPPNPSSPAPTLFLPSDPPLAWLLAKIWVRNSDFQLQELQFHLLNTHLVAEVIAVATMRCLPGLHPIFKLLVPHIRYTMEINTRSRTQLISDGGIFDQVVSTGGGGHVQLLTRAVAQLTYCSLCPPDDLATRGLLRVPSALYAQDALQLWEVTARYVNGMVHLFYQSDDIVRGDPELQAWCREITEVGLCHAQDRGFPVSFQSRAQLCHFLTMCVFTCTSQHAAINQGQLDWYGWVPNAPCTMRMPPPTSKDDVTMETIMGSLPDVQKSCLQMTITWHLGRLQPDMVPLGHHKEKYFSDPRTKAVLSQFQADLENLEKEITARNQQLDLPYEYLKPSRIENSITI
As to the kind of experiment: 12-lipoxygenase inhibition assay (rat platelet enzyme solution). Type of series: biochemical, Sprague Dawley male rat. The method, then:
The test was performed to examine inhibitory effect of various compounds on the 12-lipoxyganase activity.
1) Preparation of Enzyme Solution
A Sprague Dawley male rat was anesthetized with ether and bled from abdominal aorta using a syringe filled with about one-tenth volume of 3.8% sodium citrate. Blood was centrifuged at 180×g for 15 minutes at room temperature to pellet sanguineous platelet blood plasma. The resultant supernatant was again centrifuged at 1800×g for 10 minutes at 4° C. The pelleted platelets were rinsed twice with a washing buffer (50 mM Tris-hydrochloric acid buffer containing 154 mM sodium chloride and 2 mM EDTA, pH: 7.4). The platelets were then suspended in one-twentieth volume of a resuspension buffer (50 mM Tris-hydrochloric acid buffer containing 154 mM sodium chloride and 5.5 mM glucose, pH: 7.4). The platelets were then sonicated at 4° C. and centrifuged at 100,000×g for 30 minutes to obtain a supernatant as a 12-lipoxgenaseenzyme solution.
2) Procedure for 12-lipoxgenase inhibition assay
The enzyme solution described above was diluted with the resuspension buffer above mentioned to prepare an assay solution so as to include about 2 mU/ml of 12-lipoxygenase. […] The resultant mixture was incubated at 37° C. for 5 minutes. Subsequently, 3 μl of a 2.5 mM arachidonic acid solution in ethanol was added to incubate with for another 5 minutes at 37° C., then the reaction was ceased by the addition of 600 μl of methanol. After being centrifuged at 10,000×g for 5 minutes, 12-hydroxyeicosatetraenoic acid recovered in the supernatant was separated with a reverse phase high-performance liquid chromatography equipped with a […] the activity of 12 lipoxygenase.
The enzyme solution was prepared according to the same manner as in Test Example 1.
It was prepared according to the same procedure as in Test Example 1.
Measurement was performed according to the same procedure as in Test Example 1.
The measurement was performed according to the same procedure as in Test Example 1.

Another series deals with T2, 5-lipoxygenase (Rattus norvegicus, UniProt P12527).
T2 construct: Cultured cells were collected and washed twice; host or cells: RBL-1 rat basophilic leukemia cells (sonicate, 10,000 x g supernatant)
T2 sequence (P12527 1-673): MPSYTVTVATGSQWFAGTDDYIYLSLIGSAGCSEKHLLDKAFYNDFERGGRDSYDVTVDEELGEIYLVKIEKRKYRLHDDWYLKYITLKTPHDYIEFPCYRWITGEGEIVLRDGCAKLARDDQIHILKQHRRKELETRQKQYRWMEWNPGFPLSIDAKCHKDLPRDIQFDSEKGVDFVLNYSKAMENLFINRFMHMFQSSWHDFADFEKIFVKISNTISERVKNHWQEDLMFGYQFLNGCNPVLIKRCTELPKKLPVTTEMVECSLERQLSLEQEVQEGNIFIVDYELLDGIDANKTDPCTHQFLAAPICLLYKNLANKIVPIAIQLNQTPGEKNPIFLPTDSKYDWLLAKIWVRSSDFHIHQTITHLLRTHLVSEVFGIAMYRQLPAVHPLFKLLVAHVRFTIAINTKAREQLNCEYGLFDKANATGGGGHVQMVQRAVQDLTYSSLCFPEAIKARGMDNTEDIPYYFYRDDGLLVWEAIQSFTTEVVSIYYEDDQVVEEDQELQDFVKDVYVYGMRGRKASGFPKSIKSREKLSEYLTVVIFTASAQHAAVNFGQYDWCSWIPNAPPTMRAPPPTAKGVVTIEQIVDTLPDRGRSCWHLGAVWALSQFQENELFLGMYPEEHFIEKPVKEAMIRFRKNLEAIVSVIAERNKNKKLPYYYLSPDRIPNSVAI
Briefly: 5-lipoxygenase inhibition assay (rat basophilic leukemia cell RBL-1 enzyme solution). Type of series: biochemical. As to the method:
The test was carried out to examine the selectivity toward 12-lipoxgenase of the compounds of the first embodiment in the present invention.
i) Preparation of 5-lipoxgenase enzyme solution
Rat basophilic leukemia cells (RBL-1, ATCC CRL1378) were cultured in Dulbecco modified Eagle's medium containing 10% new-born bovine serum.
Cultured cells were collected and washed twice with a 50 mM Tris-buffered saline (containing 154 mM sodium chloride, pH: 7.4, hereinafter described as TBS). The cell suspension (4×10^7 cells/ml) was then sonicated and centrifuged at 10,000×g for 10 minutes.
The resultant supernatant was used to prepare an assay solution.
i) Procedure for 5-lipoxgenase inhibition assay
To an aliquot (15 μl) of the enzyme solution (40 mU/ml equivalent) was added 185 μl of TBS, 50 μl of a 2 mM adenosine triphosphate in TBS, 50 μl of a 12 mM calcium chloride in TBS, 1 μl of a 3 mM indomethacin in ethanol solution, 1 μl of an aqueous 300 mM reduced glutathione solution, and 3 μl of varied concentrated test compounds solution in ethanol. The resultant mixture was incubated at 37° C. for 5 minutes. Subsequently, 3 μl of a 2.5 mM arachidonic acid solution in ethanol was added to incubate the mixture for 2 minutes at 37° C. The reaction was ceased by the addition of 600 μl of methanol After being centrifuged at 10,000×g for 5 minutes, 5-hydroxyeicosatetraenoic acid recovered in the supernatant was separated with a reverse phase high-performance liquid chromatography equipped with a C-18 column and measured the absorption of diene at 234 nm to quantify the activity of the enzyme. […]
The enzyme activities of the compounds of the present invention prepared according to the same procedure as in Examples 54-58 to be described later and baicalein as sample substances at varied concentrations were measured according to the above-mentioned method, and mole concentrations showing 50% 12-lipoxgenase and 5-lipoxgenase inhibition ratios (hereinafter may be described as IC50 values) were obtained from the measured values of the sample substances.

The nature of series [3]: Deacylation control test in resuspension buffer instead of enzyme solution. The format is in vitro ADME. The note with it: resuspension buffer instead of the enzyme solution. The method, then:
(§1) One ml of the above mentioned enzyme solution was diluted with 11 ml of a resuspension buffer. To an aliquot (300 μl) of this enzyme solution was added 3 μl of a 1.0×10^-3 M test compound solution in dimethyl sulfoxide. The mixture was incubated at 37° C. for an indicated time, then the reaction was ceased by the addition of 1 ml of acetonitrile. Twenty μl of the above mixture was subjected to reverse phase high-performance liquid chromatography equipped with a C-18 column to quantify the amount of deacylated products. As a control, a test using 300 μl of the resuspension buffer solution mentioned above instead of the enzyme solution was also performed.

A short description of series [4]: Deacylation by esterases present in the enzyme solution prepared from rat platelets. The format is in vitro ADME. The note with it: platelet enzyme solution, 37° C., read-out: conversion (%) from Formula 34b or Formula 35b to Formula 32b; for metabolised at 0.5 h, 10 µM: Reaction time 30 min.; for metabolised at 1 h, 10 µM: Reaction time 60 min. The method, then:
The test was performed to examine whether or not deacylated compounds would be formed due to esterases present in the enzyme solution when the compounds in the third embodiment according to the present invention were treated with the same enzyme solution as in Test Example 4.
The enzyme solution was prepared according to the same procedure as described in Test Example 4.
as §1
Conditions of reverse phase high-performance liquid chromatography:
Column: Superspher RP-18(e) (purchased from Merck), 4.0 mm in diameter, 125 mm in length
Flow velocity: 1.0 ml/minute
Eluent: Acetonitrile containing 50 mM NaClO4 and 50 mM orthophosphate-water (55: 45)
Column temperature: 30° C.
Calibration: Absorbance of 280 nm

[5] abbreviates: Table 3, read-out: IC50 values of 12-lipoxygenase (mole).
The mark [6] stands for this setting: Table 12, deacylated compounds, read-out: 12-Lipoxygenase inhibitory effect of deacylated compounds (IC50 values).
The mark [7] stands for this setting: Table 3, read-out: IC50 values of 5-lipoxygenase (mole).
Where [8] appears, read: Table 23, read-out: 12-Lipoxygenase inhibitory effect IC50.
Setting [9] is: Table 23, read-out: 5-Lipoxygenase inhibitory effect IC50.

Entries after “also recorded” stand apart in the source; their conditions may differ. Like-named read-outs stand apart in the source and are kept apart here.

For the compound `O=c1cc(-c2ccccc2)oc2cc(O)c(O)c(O)c12` [Baicalein, baicalein], the “12-lipoxygenase inhibitory effect (literature, in words)” value in the series on 12-lipoxygenase [1] was “having an inhibitory effect to 12-lipoxygenase; also recorded: relatively high 12-lipoxgenaseinhibitory activities and a relatively high selectivity”.

With `N#CC(=Cc1ccc(O)c(O)c1)c1ccc([N+](=O)[O-])cc1` [Ex. 17, α-cyano-4-nitro-3',4'-dihydroxystilbene], the half-inhibitory concentration (IC50) at 12-lipoxygenase [2] (setting [5]) is 8.8 nM; on 12-lipoxygenase [2] (setting [6]), 8.8 nM; at 5-lipoxygenase (setting [7]), 130 nM.

In the case of `N#CC(=Cc1ccccc1)c1ccc(O)c(O)c1` [Ex. 20, α-cyano-3,4-dihydroxystilbene], the IC50 came to 17 nM on 12-lipoxygenase [2] (setting [5]) and 96 nM on 5-lipoxygenase (setting [7]).

On to `N#CC(=Cc1ccc(F)cc1)c1ccc(O)c(O)c1` [Ex. 21, α-cyano-4'-fluoro-3,4-dihydroxystilbene], for which the results for the IC50 at 12-lipoxygenase [2] (setting [5]), at 12-lipoxygenase [2] (setting [6]) and at 5-lipoxygenase (setting [7]) were 4.8 nM, 4.8 nM and 74 nM, respectively.

Regarding `N#CC(=Cc1cccc(Cl)c1)c1ccc(O)c(O)c1` [Ex. 22, α-cyano-3'-chloro-3,4-dihydroxystilbene], the half-maximal inhibitory concentration (IC50) at 12-lipoxygenase [2] (setting [5]) turned out to be 5.1 nM; on 12-lipoxygenase [2] (setting [6]) it was 5.1 nM; at 5-lipoxygenase (setting [7]), 34 nM.

Regarding `N#CC(=Cc1ccc(Br)cc1)c1ccc(O)c(O)c1` [Ex. 23, α-cyano-4'-bromo-3,4-dihydroxystilbene], the concentration for half-maximal inhibition (IC50) at 12-lipoxygenase [2] (setting [5]) amounted to 2.2 nM; at 12-lipoxygenase [2] (setting [6]), 3.6 nM; at 5-lipoxygenase (setting [7]) it was 70 nM.

Regarding `Cc1ccc(C=C(C#N)c2ccc(O)c(O)c2)cc1` [Ex. 24, α-cyano-4'-methyl-3,4-dihydroxystilbene], the results for the IC50 at 12-lipoxygenase [2] (setting [5]), on 12-lipoxygenase [2] (setting [6]) and on 5-lipoxygenase (setting [7]) were 2.5 nM, 4.5 nM and 52 nM, respectively.

With `CCc1ccc(C=C(C#N)c2ccc(O)c(O)c2)cc1` [Ex. 26, α-cyano-4'-ethyl-3,4-dihydroxystilbene], the half-inhibitory concentration (IC50) was 4.2 nM on 12-lipoxygenase [2] (setting [5]) and 32 nM on 5-lipoxygenase (setting [7]).

Consider `Cc1ccc(C=C(C#N)c2ccc(O)c(O)c2)s1` [Ex. 27, α-(5-methylthiophen-2-ylmethylidene)-3,4-dihydroxybenzeneacetonitrile], for which the IC50 on 12-lipoxygenase [2] (setting [5]) amounted to 7.7 nM; on 5-lipoxygenase (setting [7]), 66 nM.

Turning to `N#CC(=Cc1ccc(O)c(O)c1)c1csc2ccccc12` [Formula 22c], the IC50 at 12-lipoxygenase [2] (setting [8]) worked out at 8.6 nM; on 5-lipoxygenase (setting [9]), 56 nM.

Turning to `N#CC(=Cc1ccc(O)c(O)c1)c1ccc2ccccc2c1` [Formula 23c], the IC50 came out at 10 nM at 12-lipoxygenase [2] (setting [8]) and 30 nM on 5-lipoxygenase (setting [9]).

For `N#CC(=Cc1ccc2ccccc2c1)c1ccc(O)c(O)c1` [Formula 24c], the half-maximal inhibitory concentration (IC50) came to 5.6 nM on 12-lipoxygenase [2] (setting [8]) and 28 nM at 5-lipoxygenase (setting [9]).

In the case of `N#CC(=Cc1cccc2ccccc12)c1ccc(O)c(O)c1` [Formula 25c], the results for the IC50 on 12-lipoxygenase [2] (setting [8]) and on 5-lipoxygenase (setting [9]) were 5.9 nM and 36 nM, respectively.

Take `N#CC(=Cc1cc2ccccc2o1)c1ccc(O)c(O)c1` [Formula 26c]: the values for the half-inhibitory concentration (IC50) on 12-lipoxygenase [2] (setting [8]) and at 5-lipoxygenase (setting [9]) were 3.2 nM and 34 nM, respectively.

In the case of `CC(=O)Oc1ccc(C=C(C#N)c2ccc(Cl)cc2)cc1OC(C)=O` [Formula 34b], the “formation of deacylated compound (Formula 32b)” value in series [3] was “no deacylated compound (Formula 32b) was formed”. For the same compound, in series [4], the metabolised at 0.5 h, 10 µM was found to be 70.9% and the metabolised at 1 h, 10 µM turned out to be 82.8%.

On to `CCC(=O)Oc1ccc(C=C(C#N)c2ccc(Cl)cc2)cc1OC(=O)CC` [Formula 35b], for which the “formation of deacylated compound (Formula 32b)” value in series [3] was “no deacylated compound (Formula 32b) was formed”. Also, in series [4], the metabolised at 0.5 h, 10 µM turned out to be 56.5% and the metabolised at 1 h, 10 µM was 64.6%.
